In paper PMC5833296 (Journal of medicinal chemistry, 2018):
Where two headings read alike, the source gives them in different places. Marks after values point to notes of the source that are not given here.

Columns and labels:
BoNT/A = settings: mouse, in vivo; cited from earlier work
BoNT/A holotoxin [1] = molecular target: BoNT/A holotoxin (Clostridium botulinum, UniProt P0DPI1); assay: cell-based
BoNT/A holotoxin [2] = molecular target: BoNT/A holotoxin (Clostridium botulinum, UniProt P0DPI0)
BoNT/A holotoxin (Clostridium botulinum, UniProt P0DPI0), sequence (P0DPI0 2-1296 limits assumed): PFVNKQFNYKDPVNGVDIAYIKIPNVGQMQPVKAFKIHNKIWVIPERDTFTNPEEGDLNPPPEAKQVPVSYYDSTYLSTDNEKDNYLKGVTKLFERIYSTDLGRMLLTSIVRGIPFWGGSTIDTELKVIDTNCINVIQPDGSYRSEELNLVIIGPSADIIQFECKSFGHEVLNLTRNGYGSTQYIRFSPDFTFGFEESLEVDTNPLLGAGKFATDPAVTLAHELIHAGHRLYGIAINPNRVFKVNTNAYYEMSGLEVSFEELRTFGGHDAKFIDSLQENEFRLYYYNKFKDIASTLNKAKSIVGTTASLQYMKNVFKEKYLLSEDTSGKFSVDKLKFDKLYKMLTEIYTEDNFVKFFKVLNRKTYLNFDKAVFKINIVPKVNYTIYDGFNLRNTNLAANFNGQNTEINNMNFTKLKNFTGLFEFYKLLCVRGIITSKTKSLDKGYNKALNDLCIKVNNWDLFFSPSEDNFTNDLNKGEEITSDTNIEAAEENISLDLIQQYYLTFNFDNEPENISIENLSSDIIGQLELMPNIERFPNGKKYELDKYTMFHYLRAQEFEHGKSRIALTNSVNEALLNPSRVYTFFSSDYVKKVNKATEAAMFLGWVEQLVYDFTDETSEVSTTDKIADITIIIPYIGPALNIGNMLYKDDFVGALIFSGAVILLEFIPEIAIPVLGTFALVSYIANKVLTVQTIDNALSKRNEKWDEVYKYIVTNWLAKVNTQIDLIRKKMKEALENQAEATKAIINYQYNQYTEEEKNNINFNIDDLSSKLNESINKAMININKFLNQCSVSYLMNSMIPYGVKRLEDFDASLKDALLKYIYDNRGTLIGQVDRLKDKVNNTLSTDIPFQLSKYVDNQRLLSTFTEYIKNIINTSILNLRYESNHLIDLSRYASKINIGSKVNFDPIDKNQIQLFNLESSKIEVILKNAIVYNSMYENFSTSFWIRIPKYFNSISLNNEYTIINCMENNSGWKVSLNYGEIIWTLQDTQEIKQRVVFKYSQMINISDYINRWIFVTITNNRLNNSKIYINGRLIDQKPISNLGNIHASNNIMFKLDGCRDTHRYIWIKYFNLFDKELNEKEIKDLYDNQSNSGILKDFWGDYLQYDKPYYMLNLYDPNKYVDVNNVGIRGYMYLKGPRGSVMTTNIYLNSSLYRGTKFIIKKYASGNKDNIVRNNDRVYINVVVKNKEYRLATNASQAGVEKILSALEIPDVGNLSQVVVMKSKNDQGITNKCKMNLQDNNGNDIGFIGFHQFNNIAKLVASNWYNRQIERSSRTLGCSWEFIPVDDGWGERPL

BoNT/A holotoxin [3] = system: BoNT/A holotoxin
healthy mice = settings: mouse, in vivo; for Mice alive/Total mice: po, 160 mg/kg
HSA = HSA (Homo sapiens, UniProt P02768); settings: pH 7.34
HSA, sequence (P02768 25-609): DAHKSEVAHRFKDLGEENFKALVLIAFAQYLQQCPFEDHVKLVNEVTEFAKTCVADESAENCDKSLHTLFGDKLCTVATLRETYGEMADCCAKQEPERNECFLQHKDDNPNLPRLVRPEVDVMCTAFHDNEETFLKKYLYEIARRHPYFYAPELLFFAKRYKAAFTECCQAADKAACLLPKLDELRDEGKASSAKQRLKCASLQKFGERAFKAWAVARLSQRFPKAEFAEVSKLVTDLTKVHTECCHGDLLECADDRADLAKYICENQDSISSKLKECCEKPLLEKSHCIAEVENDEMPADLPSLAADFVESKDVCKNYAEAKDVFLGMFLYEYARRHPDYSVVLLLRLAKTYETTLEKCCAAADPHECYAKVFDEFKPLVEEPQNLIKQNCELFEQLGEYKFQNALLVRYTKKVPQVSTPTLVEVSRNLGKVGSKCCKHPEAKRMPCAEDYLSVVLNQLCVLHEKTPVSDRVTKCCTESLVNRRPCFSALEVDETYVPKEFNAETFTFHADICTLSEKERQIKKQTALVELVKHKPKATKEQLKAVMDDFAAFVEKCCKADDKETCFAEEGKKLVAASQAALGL

AGP = settings: pH 7.34
[4] = in vivo
[5] = system: CYP450 enzymes (CYP3A4, CYP2C19, CYP2D6); assay: in vitro; settings: human

BoNT/A holotoxin (Clostridium botulinum, UniProt P0DPI1), sequence (P0DPI1 2-448 limits assumed): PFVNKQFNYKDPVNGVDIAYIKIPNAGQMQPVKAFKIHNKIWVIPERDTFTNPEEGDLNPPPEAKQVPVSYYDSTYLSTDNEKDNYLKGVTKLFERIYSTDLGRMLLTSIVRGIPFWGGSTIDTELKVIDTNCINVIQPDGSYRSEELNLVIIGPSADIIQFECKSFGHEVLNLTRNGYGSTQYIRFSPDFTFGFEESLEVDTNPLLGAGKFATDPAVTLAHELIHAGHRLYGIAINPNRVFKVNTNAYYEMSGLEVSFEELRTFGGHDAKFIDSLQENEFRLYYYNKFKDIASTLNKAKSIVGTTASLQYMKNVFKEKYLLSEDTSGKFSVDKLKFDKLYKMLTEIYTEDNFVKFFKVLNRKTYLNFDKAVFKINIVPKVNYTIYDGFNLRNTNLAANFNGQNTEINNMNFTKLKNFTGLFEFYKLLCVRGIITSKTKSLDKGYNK

Compound	% of full length SNAP-25, mES-MNs pre intoxication (BoNT/A holotoxin [1]; 10 μM)	% of full length SNAP-25, mES-MNs pre intoxication (BoNT/A holotoxin [1]; 20 μM)	exp LogD (pH 1)	exp LogD (pH 10)	also measured
O=C(CS)Nc1cc(-c2ccc(F)cc2)n[nH]1 [ABS 252, N-(3-(4-fluorophenyl)-1H pyrazol-5 yl)-2-mercaptoacetamide]	–	–	–	–	survival of BoNT intoxicated mice (BoNT/A): effective in extending survival
CC(=O)O[C@H]1C[C@H]2[C@@H]([C@H](OC(C)=O)C[C@@H]3C[C@H](NCCCCCCNc4ccnc5cc(Cl)ccc45)CC[C@@]32C)[C@@H]2CC[C@H]([C@H](C)CCCNCCCCCCNc3ccnc4cc(Cl)ccc34)[C@@]12C [Compound 1, reference compound]	70; 84%	70; 84%	–	–	IC50 (BoNT/A holotoxin [1]): < 10 µM; % of full length SNAP-25, mES-MNs post intoxication (BoNT/A holotoxin [2]): 36; 20%
CC(=O)O[C@H]1C[C@H]2[C@@H]([C@H](OC(C)=O)C[C@@H]3C[C@H](N)CC[C@@]32C)[C@@H]2CC[C@H]([C@H](C)CCCNCCCCNc3ccnc4ccccc34)[C@@]12C [Compound 14]	28; 67%	28; 67%	2.14 (pH=1)	–	IC50 (BoNT/A holotoxin [1]): 10 to 20 µM
CC(=O)O[C@H]1C[C@H]2[C@@H]([C@H](OC(C)=O)C[C@@H]3C[C@H](N)CC[C@@]32C)[C@@H]2CC[C@H]([C@H](C)CCCN(C)CCCCNc3ccnc4ccccc34)[C@@]12C [Compound 15]	70; 69%	70; 69%	2.11 (pH=1)	–	–
CC(=O)O[C@H]1C[C@H]2[C@@H]([C@H](OC(C)=O)C[C@@H]3C[C@H](N)CC[C@@]32C)[C@@H]2CC[C@H]([C@H](C)CCCNCCCCNc3ccnc4cc(Cl)ccc34)[C@@]12C [Compound 16]	–	–	2.55 (pH=1); 2.07 (pH=7.3) ^d	–	% of full length SNAP-25, mES-MNs pre intoxication (BoNT/A holotoxin [1]): 72; 88%; toxicity in mES-MNs (GAPDH loading control levels lower) (BoNT/A holotoxin [3]): potential toxicity; host toxicity, single oral dose (healthy mice): non-toxic; Mice alive/Total mice (healthy mice): 5/5; Ksv for HSA (HSA): (4.56±0.27)×10^4; Ksv for AGP (AGP): (6.99±0.25)×10^5; time Tc > 3μM ([4]; mouse): >45 min; IC50 [5]: 1 to 10 µM
CC(=O)O[C@H]1C[C@H]2[C@@H]([C@H](OC(C)=O)C[C@@H]3C[C@H](N)CC[C@@]32C)[C@@H]2CC[C@H]([C@H](C)CCCNCCCC(C)Nc3ccnc4ccccc34)[C@@]12C (stereo partly drawn) [Compound 17]	67; 69%	67; 69%	2.28 (pH=1)	–	–
CC(=O)O[C@H]1C[C@H]2[C@@H]([C@H](OC(C)=O)C[C@@H]3C[C@H](N)CC[C@@]32C)[C@@H]2CC[C@H]([C@H](C)CCCN(C)CCCC(C)Nc3ccnc4ccccc34)[C@@]12C (stereo partly drawn) [Compound 18]	–	–	2.38 (pH=1)	–	% of full length SNAP-25, mES-MNs pre intoxication (BoNT/A holotoxin [1]): 20; 41%
CC(=O)O[C@H]1C[C@H]2[C@@H]([C@H](OC(C)=O)C[C@@H]3C[C@H](N)CC[C@@]32C)[C@@H]2CC[C@H]([C@H](C)CCCNC(C)CCCNc3ccnc4ccccc34)[C@@]12C (stereo partly drawn) [Compound 19]	86; 87%	86; 87%	2.21 (pH=1)	–	Mice alive/Total mice (healthy mice): 3/5
C[C@H](CCCNCCCCNc1ccnc2cc(Cl)ccc12)[C@H]1CC[C@H]2[C@@H]3[C@H](O)C[C@@H]4C[C@H](N)CC[C@]4(C)[C@H]3C[C@H](O)[C@]12C [Compound 24]	–	–	2.97 (pH=1)	–	IC50 (BoNT/A holotoxin [1]): 8 to 16 µM; % of full length SNAP-25, mES-MNs pre intoxication (BoNT/A holotoxin [1]; 8 μM): 46; 58 ^e %; % of full length SNAP-25, mES-MNs pre intoxication (BoNT/A holotoxin [1]; 16 μM): 46; 58 ^e %; detection as metabolite in mouse samples after oral 16 [4]: None of these metabolites were detected
CC(CCCNc1ccnc2ccccc12)NCc1ccc(-c2csc3ccc(F)cc23)cc1 (stereo not drawn) [Compound 34]	–	–	–	3.85 (pH=10)	% of full length SNAP-25, mES-MNs pre intoxication (BoNT/A holotoxin [1]): 58; 68%; IC50 (BoNT/A holotoxin [1]): 10 to 20 µM; Mice alive/Total mice (healthy mice): 5/5
CC(CCCNCc1ccc(-c2csc3ccc(C#N)cc23)cc1)Nc1ccnc2ccccc12 (stereo not drawn) [Compound 36]	34; 53%	34; 53%	–	3.67 (pH=10)	–
CN(CCCCNc1ccnc2ccccc12)Cc1ccc(-c2csc3ccc(F)cc23)cc1 [Compound 37]	44; 55%	44; 55%	–	3.98 (pH=10)	–
CC(CCCN(C)Cc1ccc(-c2csc3ccc(C#N)cc23)cc1)Nc1ccnc2ccccc12 (stereo not drawn) [Compound 38]	–	–	–	3.42 (pH=10)	% of full length SNAP-25, mES-MNs pre intoxication (BoNT/A holotoxin [1]): 59; 64%; IC50 (BoNT/A holotoxin [1]): 10 to 20 µM
N#Cc1ccc(-c2ccc(-c3ccc(CNCCCCCCNc4ccnc5ccccc45)cc3)s2)cc1 [Compound 46]	22; 48%	22; 48%	3.08 (pH=1)	–	–
N#Cc1ccc(-c2ccc(-c3cccc(CNCCCCCCNc4ccnc5ccccc45)c3)s2)cc1 [Compound 50]	46; 71%	46; 71%	3.08 (pH=1)	–	–
CN(CCCNc1ccnc2cc(Cl)ccc12)CC12CC3CC(CC(C3)C1)C2 [Compound 57]	51; 56%	51; 56%	–	3.24 (pH=10)	Mice alive/Total mice (healthy mice): 4/5

Compound	% of full length SNAP-25, mES-MNs pre intoxication (BoNT/A holotoxin [1]; 10 μM)	% of full length SNAP-25, mES-MNs pre intoxication (BoNT/A holotoxin [1]; 20 μM)	exp LogD (pH 1)	exp LogD (pH 10)	also measured
CC(CCN(C)CC12CC3CC(CC(C3)C1)C2)Nc1ccnc2cc(Cl)ccc12 (stereo not drawn) [Compound 60]	63; 72%	63; 72%	–	3.47 (pH=10)	IC50 (BoNT/A holotoxin [1]): < 10 µM; protection of SNAP-25, pre-exposure dose-response experiment (BoNT/A holotoxin [1]): 90%; Mice alive/Total mice (healthy mice): 3/5
CN(CCCNc1ccnc2ccccc12)CC12CC3CC(CC(C3)C1)C2 [Compound 68]	30; 31%	30; 31%	–	–	–
CC(CCNc1ccnc2ccccc12)NCCC12CC3CC(CC(C3)C1)C2 (stereo not drawn) [Compound 81]	23; 24%	23; 24%	–	–	–
CC(CCN(C)CC12CC3CC(CC(C3)C1)C2)Nc1ccnc2ccccc12 (stereo not drawn) [Compound 85]	–	–	–	–	% of full length SNAP-25, mES-MNs pre intoxication (BoNT/A holotoxin [1]): 47; 46%
N#Cc1ccc2scc(-c3ccc(CNCCCCNc4ccnc5ccccc45)cc3)c2c1 [Compound 86]	21; 26%	21; 26%	–	3.67 (pH=10)	–
N#Cc1ccc2scc(-c3ccc(CNCCCCCCNc4ccnc5ccccc45)cc3)c2c1 [Compound 87]	36; 43%	36; 43%	–	3.85 (pH=10)	–
CC(CCCNCc1ccc(-c2csc3ccc(F)cc23)cc1)Nc1ccnc2ccccc12 (stereo not drawn) [Compound 91]	–	–	–	3.98 (pH=10)	% of full length SNAP-25, mES-MNs pre intoxication (BoNT/A holotoxin [1]): 62; 62%
N#Cc1ccc(-c2ccc(-c3ccc(CNCCCCCCCCNc4ccnc5ccccc45)cc3)s2)cc1 [Compound 93]	–	–	3.42 (pH=1)	–	% of full length SNAP-25, mES-MNs pre intoxication (BoNT/A holotoxin [1]): 31; 70%; Mice alive/Total mice (healthy mice): 5/5
CN(CCCCCCCCNc1ccnc2ccccc12)Cc1ccc(-c2ccc(-c3ccc(C#N)cc3)s2)cc1 [Compound 96]	–	–	3.33 (pH=1)	–	% of full length SNAP-25, mES-MNs pre intoxication (BoNT/A holotoxin [1]): 54; 60%; IC50 (BoNT/A holotoxin [1]): 5 to 10 µM; Mice alive/Total mice (healthy mice): 5/5
N#Cc1ccc(-c2ccc(-c3ccc(CNCCCCNc4ccnc5ccccc45)cc3)s2)cc1 [Compound 101]	18; 39%	18; 39%	2.93 (pH=1)	–	–
CC(CCNc1ccnc2cc(Cl)ccc12)NCC12CC3CC(CC(C3)C1)C2 (stereo not drawn) [Compound 102]	29; 30%	29; 30%	–	3.40 (pH=10)	–
CC(CCNCCC12CC3CC(CC(C3)C1)C2)Nc1c(F)cnc2cc(Cl)ccc12 (stereo not drawn) [Compound 103]	30; 29%	30; 29%	–	4.33 (pH=10)	–
CC(CCNCC12CC3CC(CC(C3)C1)C2)Nc1c(F)cnc2cc(Cl)ccc12 (stereo not drawn) [Compound 104]	31; 35%	31; 35%	–	3.24 (pH=10)	–
CC(CCNCC12CC3CC(CC(C3)C1)C2)Nc1c(F)cnc2ccccc12 (stereo not drawn) [Compound 105]	24; 23%	24; 23%	–	3.09 (pH=10)	–
CC(CCNCCC12CC3CC(CC(C3)C1)C2)Nc1c(F)cnc2ccccc12 (stereo not drawn) [Compound 106]	30; 32%	30; 32%	–	4.13 (pH=10)	–
